The values below come from patent US20240309015A1, “Methods for the Treatment of Fibrotic Disease” (SHY Therapeutics, LLC, priority 2021, published 2024).

One test relates to KRas G12D mutant. The test can be described thus: Ras GTP Binding Domain Inhibition Assay, KRas G12D mutant. Particulars: at 20 μM; for KRas G12D mutant + SOS: % inh.: with SOS; for KRas G12D mutant: % inh.: without SOS. In a few lines: (§1)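 Read-out is fluorescence of Cy3- or Cy5-GTP (100 nM, 45 min, room temperature) still bound after three washes. Beforehand, His-tagged protein on nickel wells was exposed to compound (20 μM, or a dilution series for IC50) for 3 h, with or without Sos in the last hour.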

A further test deals with JNK. The test can be described thus: JNK Activation Assay in PANC-1. Particulars: at 10 μM. Type of test: cell-based, human. Details: key: Y = yes; N = No. The protocol: Cell lines: Human tumor-derived pancreatic cancer cell line Panc-1 and mouse muscle myoblast C2C12 were purchased from American Type Culture Collection and grown in complete DMEM-High Glucose, supplemented with penicillin (100 U/mL), streptomycin (100 μg/mL), and 10% heat-inactivated FBS at 37° C. in a humidified incubator with 5% CO2.
Method: Cells were plated at 350000 cells/well density in a 12-well plate, allowed 3 hours to adhere to the plate, then starved in the appropriate medium in the presence of 0.5% FBS overnight. The small molecules to be tested were added to the cells in the final concentration of 10 μM in the presence of 0.3% DMSO for 3 hours incubation at 37° C. For IC50 value determination, serial dilutions of compounds were added to cells under the same conditions. […] Protein concentration was assessed by BCA protein assay (Thermo Scientific). Phosphorylation level of JNK was determined by western blot.
Western blot protocol: Equal amounts of protein (15-50 μg) were separated by SDS-PAGE and transferred to nitrocellulose membranes (Invitrogen by Thermo Fisher Scientific). […] Membranes were blocked with 10% milk and phosphorylation levels of Smad2, Smad3, JNK and p38 were assessed by incubating overnight at 4° C. with the following antibody: Phospho-SAPK/JNK (Thr183/Tyr185), from Cell Signaling Technology. […]

For the next test, the system named is KRas wild type. The test can be described thus: Ras GTP Binding Domain Inhibition Assay, KRas wild type. Particulars: at 20 μM. The essentials:
as §1

Take `CO[C@H]1CC[C@@H](Nc2nc(-c3nccn3C)nc3sc(-c4ccn(C)n4)c(-c4ccccc4)c23)C1` (racemic) [Compound 5, rac-N-((1R,3S)-3-Methoxycyclopentyl)-2-(1-methyl-1H-imidazol-2-yl)-6-(1-methyl-1H-pyrazol-3-yl)-5-phenylthieno[2,3-d]pyrimidin-4-amine]: the “KRas G12D mutant + SOS: % inh.” value in the test on KRas G12D mutant (Table 7) and with KRas G12D mutant (Table 8) was “C (C = 46-75% inhibition)” each time. In addition, the “KRas G12D mutant: % inh.” value with KRas G12D mutant (Table 7) and in the test with KRas G12D mutant (Table 8) was “A (A = 1-25% inhibition)” throughout. Besides, the “Activation of JNK in PANC-1” value with JNK is recorded as “Y”. In addition, the “KRas wild type + SOS: % inh.” value in the test on KRas wild type (with SOS) is “D (D = 76-100% inhibition)”. Also, in the test on KRas wild type (without SOS), the “KRas wild type: % inh.” value is “B (B = 26-45% inhibition)”.
